Source: patent US20210323976A1, “HETEROARYL COMPOUNDS FOR KINASE INHIBITION” (ARIAD Pharmaceuticals, Inc., priority 2015, published 2021)

Assays:
[1] = biological target: EGFR exon 20 NPG insertion (H773_V774insNPG) (Homo sapiens, UniProt P00533, cells depend on it, form not given); assay: Ba/F3-EGFR-Exon20-NPG cell anti-proliferation assay (MTS, CellTiter 96 AQueous One); format: cell-based; details: 72 h, MTS signal
Source text: A compound's ability in selectively inhibiting EGFR exon 20 insertion mutations can be assessed using Ba/F3 cells, a murine pro-B cell line, which have been transduced with EGFR exon 20 insertions. An expression vector, pLVX-IRES puro (Clontech) coding for human EGFR exon 20 insertions NPG (H773_V774insNPG) or ASV (V769_D770insASV), was transfected into HEK293 cells by the Trans-Lentiviral ORF Packaging System (Thermo Scientific), to produce virus encoding EGFR exon 20 insertions. Ba/F3 (DSMZ) cells maintained in RPM11640 medium supplemented with 10% fetal bovine serum, 200 pM L-glutamine/200 µg/mL penicillin/200 µg/mL streptomycin (Life Technology) and 10 ng/mL IL-3 (R&D system), were infected by EGFR Exon20 virus and subsequently selected by puromycin (Life Technology) selection and IL-3 depletion. Ba/F3 cells expressing EGFR exon 20 insertions (named Ba/F3-EGFR-Exon20-NPG or Ba/F3-EGFR-Exon20-ASV) can proliferate in the absence of IL-3. The anti-proliferative activity of compounds were determined as follows: BaF3-EGFR-Exon20 cells (NPG or ASV) seeded in 96 well plates (2500 cells/well) were treated with test compound (dissolved in DMSO) at a series of concentrations (4-fold dilution, top concentration: 10,000 nM). The plates were incubated for 72 h in a 37° C. incubator with 5% CO2, and the number of viable cells in each well were measured indirectly by CellTiter 96® Aqueous One Solution Cell Proliferation Assay (Promega) This assay is a colorimetric method for determining the number of viable cells through measurement of their metabolic activity by detection of enzymatic conversion of tetrazolium salts into blue formazan derivatives. Reagent (20 pL) was added into each well, and the plates were returned to the incubator for 2 h. The absorbance in each well was then measured at 490 nm using an Envision plate reader (Perkin Elmer). IC50 values were calculated by determining the concentration of compound required to decrease the MTS signal by 50% comparing to the DMSO control in best-fit curves using Microsoft XLfit software or Accelrys Pipeline Pilot.

[2] = biological target: T1, EGFR exon 19 deletion (E746-A750) and T790M mutation (Homo sapiens, UniProt P00533, DEL746-750/T790M); assay: Ba/F3-EGFR-Del/T790M cell anti-proliferation assay (MTS); format: cell-based; details: Ba/F3-EGFR-Del/T790M cells, 72 h, MTS signal
T1 construct: expressed in transfected cells; host or cells: Ba/F3 (murine pro-B) cells, lentiviral transduction with pLVX-IRES puro
Source text: A compound's ability in selectively inhibiting EGFR exon 19 deletion and T790M concurrent mutations can be assessed using Ba/F3 cells, a murine pro-B cell line, which have been transduced with EGFR exon 19 deletion and T790M mutation. An expression vector, pLVX-IRES puro (Clontech) coding for human EGFR E746-A750 deletion and T790M Mutation, was transfected into HEK293 cells by the Trans-Lentiviral ORF Packaging System (Thermo Scientific), to produce virus encoding EGFR exon 19 deletion and T790M mutations. Ba/F3 (DSMZ) cells maintained in RPM11640 medium supplemented with 10% fetal bovine serum, 200 pM L-glutamine/200 μg/mL penicillin/200 μg/mL streptomycin (Life Technology) and 10 ng/mL IL-3 (R&D system), were infected by EGFR E746-A750 deletion and T790M Mutation virus and subsequently selected by puromycin (Life Technology) selection and IL-3 depletion. Ba/F3 cells expressing EGFR E746-A750 deletion and T790M Mutation (named Ba/F3-EGFR-Del/T790M) can proliferate in the absence of IL-3. The anti-proliferative activity of compounds was determined as follows: BaF3-EGFR-Del/T790M cells seeded in 96 well plates (2500 cells/well) were treated with test compound (dissolved in DMSO) at a series of concentrations (4-fold dilution, top concentration: 10,000 nM). The plates were incubated for 72 h in a 37° C. incubator with 5% CO2, and the number of viable cells in each well were measured indirectly by CellTiter 96® Aqueous One Solution Cell Proliferation Assay (Promega; this assay is a colorimetric method for determining the number of viable cells through measurement of their metabolic activity by detection of enzymatic conversion of tetrazolium salts into blue formazan derivatives). Reagent (20 pL) was added into each well, and the plates were returned to the incubator for 2 h. The absorbance in each well was then measured at 490 nm using an Envision plate reader (Perkin Elmer). IC50 values were calculated by determining the concentration of compound required to decrease the MTS signal by 50% comparing to the DMSO control in best-fit curves using Microsoft XLfit software or Accelrys Pipeline Pilot.

T1 sequence (P00533 with tags, fused parts or gaps DEL746-750/T790M): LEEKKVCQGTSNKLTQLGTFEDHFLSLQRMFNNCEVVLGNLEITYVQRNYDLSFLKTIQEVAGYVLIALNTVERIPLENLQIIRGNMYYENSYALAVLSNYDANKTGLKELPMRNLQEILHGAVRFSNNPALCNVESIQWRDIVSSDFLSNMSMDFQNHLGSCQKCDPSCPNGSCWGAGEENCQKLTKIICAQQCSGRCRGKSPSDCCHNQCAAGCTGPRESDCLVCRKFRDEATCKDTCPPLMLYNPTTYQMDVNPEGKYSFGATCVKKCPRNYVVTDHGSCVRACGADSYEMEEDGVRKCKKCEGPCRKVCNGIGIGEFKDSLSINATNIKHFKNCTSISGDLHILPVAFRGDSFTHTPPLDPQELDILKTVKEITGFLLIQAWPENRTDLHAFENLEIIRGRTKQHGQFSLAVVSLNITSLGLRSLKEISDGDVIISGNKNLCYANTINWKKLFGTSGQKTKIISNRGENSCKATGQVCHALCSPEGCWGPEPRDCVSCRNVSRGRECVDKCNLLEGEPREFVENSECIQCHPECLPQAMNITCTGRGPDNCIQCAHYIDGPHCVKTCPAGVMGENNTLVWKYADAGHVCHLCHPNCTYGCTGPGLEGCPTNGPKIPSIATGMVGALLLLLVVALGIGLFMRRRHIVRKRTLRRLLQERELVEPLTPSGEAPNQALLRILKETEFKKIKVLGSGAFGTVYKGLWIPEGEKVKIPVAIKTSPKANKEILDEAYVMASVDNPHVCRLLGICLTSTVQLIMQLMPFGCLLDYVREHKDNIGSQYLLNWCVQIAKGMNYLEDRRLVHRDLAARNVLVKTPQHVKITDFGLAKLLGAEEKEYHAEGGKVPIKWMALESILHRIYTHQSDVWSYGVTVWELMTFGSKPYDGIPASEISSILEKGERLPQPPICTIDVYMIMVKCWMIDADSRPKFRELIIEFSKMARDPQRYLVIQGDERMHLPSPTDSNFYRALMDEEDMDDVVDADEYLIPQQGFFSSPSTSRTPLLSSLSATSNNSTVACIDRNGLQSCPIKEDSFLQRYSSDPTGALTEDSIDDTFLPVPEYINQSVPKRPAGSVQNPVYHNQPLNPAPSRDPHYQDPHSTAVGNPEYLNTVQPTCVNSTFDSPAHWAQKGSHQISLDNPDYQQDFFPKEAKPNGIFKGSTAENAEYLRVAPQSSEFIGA
EGFR exon 20 NPG insertion (H773_V774insNPG), sequence (P00533 with tags, fused parts or gaps INS772GNP, form open): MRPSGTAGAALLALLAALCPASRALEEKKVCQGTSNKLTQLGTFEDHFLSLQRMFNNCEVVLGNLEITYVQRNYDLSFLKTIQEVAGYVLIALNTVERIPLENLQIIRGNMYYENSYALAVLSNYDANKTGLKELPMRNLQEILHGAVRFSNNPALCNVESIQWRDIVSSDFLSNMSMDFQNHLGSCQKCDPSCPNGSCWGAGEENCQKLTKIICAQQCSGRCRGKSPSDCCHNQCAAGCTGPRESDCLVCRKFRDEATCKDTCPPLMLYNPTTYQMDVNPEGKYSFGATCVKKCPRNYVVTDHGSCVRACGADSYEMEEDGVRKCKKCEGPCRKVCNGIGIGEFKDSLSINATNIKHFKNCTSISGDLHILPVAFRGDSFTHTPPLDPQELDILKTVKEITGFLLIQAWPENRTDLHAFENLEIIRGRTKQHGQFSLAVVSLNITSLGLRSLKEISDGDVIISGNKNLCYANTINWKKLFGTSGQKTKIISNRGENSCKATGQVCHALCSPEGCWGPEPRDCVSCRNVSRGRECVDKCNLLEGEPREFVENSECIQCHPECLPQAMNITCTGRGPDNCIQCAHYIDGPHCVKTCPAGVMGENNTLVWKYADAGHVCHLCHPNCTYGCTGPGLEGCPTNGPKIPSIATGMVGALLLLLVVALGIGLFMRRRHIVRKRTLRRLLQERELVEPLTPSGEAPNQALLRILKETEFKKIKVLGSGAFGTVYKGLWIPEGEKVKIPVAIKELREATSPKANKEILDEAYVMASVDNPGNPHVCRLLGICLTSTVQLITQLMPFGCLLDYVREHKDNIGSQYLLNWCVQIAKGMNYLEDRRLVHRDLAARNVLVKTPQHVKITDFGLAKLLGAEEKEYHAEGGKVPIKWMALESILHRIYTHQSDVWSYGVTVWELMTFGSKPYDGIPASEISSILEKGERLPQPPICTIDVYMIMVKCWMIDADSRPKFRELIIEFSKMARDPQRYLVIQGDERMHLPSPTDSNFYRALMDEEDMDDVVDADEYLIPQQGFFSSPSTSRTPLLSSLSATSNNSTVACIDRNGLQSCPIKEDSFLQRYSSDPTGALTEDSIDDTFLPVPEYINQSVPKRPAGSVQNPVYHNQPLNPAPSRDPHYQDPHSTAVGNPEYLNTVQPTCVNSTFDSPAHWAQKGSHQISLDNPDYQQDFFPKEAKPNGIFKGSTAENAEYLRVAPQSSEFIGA

IC50 [1] [nM]	Structure (SMILES)	EGFR exon 19 deletion and T790M mutation IC50 [2]
< 100	C=CC(=O)Nc1cc(Nc2nccc(-c3c4n(c5ccccc35)CCOC4)n2)c(OC)cc1N(C)CCN(C)C [Example 1, N-(5-((4-(3,4-dihydro-1H-[1,4]oxazino[4,3-a]indol-10-yl)pyrimidin-2-yl)amino)-2-((2-(dimethylamino)ethyl)(methyl)amino)-4-methoxyphenyl)acrylamide]	A (Group A compounds have an IC50 value for the indicated mutant below about 100 nM)
	C=CC(=O)Nc1cc(Nc2nccc(-c3c4n(c5ccccc35)CCN(C)C4=O)n2)c(OC)cc1N(C)CCN(C)C [Example 2, N-(2-((2-(dimethylamino)ethyl)(methyl)amino)-4-methoxy-5-((4-(2-methyl-1-oxo-1,2,3,4-tetrahydropyrazino[1,2-a]indol-10-yl)pyrimidin-2-yl)amino)phenyl)acrylamide]	A (Group A compounds have an IC50 value for the indicated mutant below about 100 nM)
< 100	C=CC(=O)Nc1cc(Nc2nccc(-c3c4n(c5ccccc35)CC(O)CC4)n2)c(OC)cc1N(C)CCN(C)C (stereo not shown) [Example 3, N-(2-((2-(dimethylamino)ethyl)(methyl)amino)-5-((4-(7-hydroxy-6,7,8,9-tetrahydropyrido[1,2-a]indol-10-yl)pyrimidin-2-yl)amino)-4-methoxyphenyl)acrylamide]	A (Group A compounds have an IC50 value for the indicated mutant below about 100 nM)
	C=CC(=O)Nc1cc(Nc2nccc(-c3c4n(c5ccccc35)CC3OC(C)(C)OC3C4)n2)c(OC)cc1N(C)CCN(C)C (stereo not drawn) [Example 4, N-(5-((4-(cis-2,2-dimethyl-3a,4,11,11a-tetrahydro-[1,3]dioxolo[4′,5′:4,5]pyrido[1,2-a]indol-10-yl)pyrimidin-2-yl)amino)-2-((2-(dimethylamino)ethyl)(methyl)amino)-4-methoxyphenyl)acrylamide]	A (Group A compounds have an IC50 value for the indicated mutant below about 100 nM)
	C=CC(=O)Nc1cc(Nc2nccc(-c3c4n(c5ccccc35)CCCC4)n2)c(OC)cc1N(C)CCN(C)C [Example 5, N-(2-((2-(dimethylamino)ethyl)(methyl)amino)-4-methoxy-5-((4-(6,7,8,9-tetrahydropyrido[1,2-a]indol-10-yl)pyrimidin-2-yl)amino)phenyl)acrylamide]	A (Group A compounds have an IC50 value for the indicated mutant below about 100 nM)
	C=CC(=O)Nc1cc(Nc2nccc(-c3c4n(c5ccccc35)CC(O)C(O)C4)n2)c(OC)cc1N(C)CCN(C)C (stereo not drawn) [Example 6, N-(5-((4-(cis-7,8-dihydroxy-6,7,8,9-tetrahydropyrido[1,2-a]indol-10-yl)pyrimidin-2-yl)amino)-2-((2-(dimethylamino)ethyl)(methyl)amino)-4-methoxyphenyl)acrylamide]	A (Group A compounds have an IC50 value for the indicated mutant below about 100 nM)
	C=CC(=O)Nc1cc(Nc2nccc(-c3c4n(c5ccccc35)CC(OC)CC4)n2)c(OC)cc1N(C)CCN(C)C (stereo not shown) [Example 7, N-(2-((2-(dimethylamino)ethyl)(methyl)amino)-4-methoxy-5-((4-(7-methoxy-6,7,8,9-tetrahydropyrido[1,2-a]indol-10-yl)pyrimidin-2-yl)amino)phenyl)acrylamide]	A (Group A compounds have an IC50 value for the indicated mutant below about 100 nM)
	C=CC(=O)Nc1cc(Nc2nccc(-n3c4c(c5ccccc53)CC(O)CC4)n2)c(OC)cc1N(C)CCN(C)C (stereo not shown) [Example 10, N-(2-((2-(dimethylamino)ethyl)(methyl)amino)-5-((4-(3-hydroxy-1,2,3,4-tetrahydro-9H-carbazol-9-yl)pyrimidin-2-yl)amino)-4-methoxyphenyl)acrylamide]	A (Group A compounds have an IC50 value for the indicated mutant below about 100 nM)
